How the values were obtained:
Emulsion stability tests = format: physicochemical; conditions: for Classification of Emulsion: 2% ester, 7% myristyl propionate, 91% water
Procedure: Emulsion stability tests were performed on the esters (I), and for comparison on the precursor esters (Ia), to determine the extent to which each stabilized a standardized solution of water and an oil, using a common procedure consisting of homogenizing a mixture containing the test ester (2%), myristyl propionate (7%), and water (91%). While two emulsifiers are normally used to prepare a cosmetic formulation, e.g. one with a high HLB and the other with a low HLB, the test method herein using only one emulsifier, i.e. the test ester, is fully indicative of the emulsifying attributes of these esters.
The tests were performed with emulsions (500 g), prepared by combining the test ester (10.0 g), myristyl propionate (35 g), and distilled water (455 g) in a container and homogenizing the contents for one minute, via a Kika-Werk Ultra-Turrax S D-45 homogenizer. The emulsions were poured into a one pound flint jar, capped, and periodically examined over a 55 day period.

[1] = HLB determination (weighted average method); format: physicochemical
Excerpt: Hydrophilic-Lipophilic Balance or HLB is a means of associating the hydrophilic and lipophilic characteristics between two surfactants. A "weighted average" method was used to determine the HLB of the esters (I), and by comparison of the precursor ester (Ia), in which two emulsifiers of known HLB values along with the test ester were incorporated in a mixture of mineral oil and water. Evaluation and HLB determination of each of a series of prepared emulsion samples were effected by visual inspection.
The HLB of the mixture "m" is calculated from the sum of the HLB contributions of each surfactant, "a", "b", "c", per Equation 2 which describes a system of oil, water, and three surfactants.
Given that [HLB]m, [HLB]a, and [HLB]b, are known, and the ideal amount of "a", "b", and "c" to prepare a perfect emulsion has been determined, then by rearrangement of Eq. 2, the HLB of "c" can be calculated by Equation 3.
To obtain the HLB of the test ester as surfactant "c", a series of formulations was prepared in which the known surfactant sorbitan monostearate (SMS) as "a" and the known surfactant POE 20 sorbitan monostearate (POE 20 SMS) as "b" were varied in amount (wt. %) relative to each other at a constant amount (1 wt. %) of "c", until an optimum emulsion was obtained. Different combinations of "a" and "b" were used to vary the HLB of "c", for emulsifying a 40:56 (wt. %) mixture of paraffin oil and distilled water (totaling 96 wt. %).
To prepare the emulsions, surfactants "a", "b", and "c", and the paraffin oil were combined in a 150 ml beaker and heated slowly with agitation to 70°-80° C. The value of "X" in each formulation was predetermined by rearranging Eq. 3 to solve for X, and then inserting into the equation various [HLB]c values for the test ester (i.e., 2, 3, 4, 5, 6 . . . ). The [HLB]c values chosen reflected a range that would likely contain the actual HLB of the test ester. Hot distilled water (70°-80° C.) was then slowly added with agitation. The total weight of all these reagents was 100 grams. The resulting emulsion was allowed to cool, with continued agitation, until the temperature dropped below 30° C.
A series of emulsions for each test was prepared, one at a time, and then examined as a set. Each sample within the series was evaluated and graded according to the quality of the emulsion by visual examination of droplet size.

Molecule	ability to stabilize emulsions (Emulsion stability tests)	Average HLB [1]	HLB Range [1]	Classification of Emulsion (Emulsion stability tests; 2 Hours after preparation)	Classification of Emulsion (Emulsion stability tests; 7 Days after preparation)	Classification of Emulsion (Emulsion stability tests; 22 Days after preparation)	Classification of Emulsion (Emulsion stability tests; 55 Days after preparation)
mixture of the 2-(3-hydroxymethyl-5,5-dimethyl-1,3-diazacyclopentane-2,4-dion-1-yl)-ethylesters of caprylic acid and capric acid [Methylolated C8/10 Ester]	generally unable to stabilize an emulsion for more than two hours	–	–	–	–	–	–
CCCCCCCCCCCCCCCCCC(=O)OCCN1C(=O)NC(=O)C1(C)C [Stearic Non-Methylolated Ester, 2-(5,5-dimethyl-1,3-diazacyclopentane-2,4-dion-1-yl)-ethyl ester of stearic acid]	–	1.5	1-3	2-Phase	2-Phase	2-Phase	2-Phase
CC(=O)OCCN1C(=O)NC(=O)C1(C)C [Acetic Non-Methylolated Ester, 2-(5,5-dimethyl-1,3-diazacyclopentane-2,4-dion-1-yl)-ethyl ester of acetic acid]	–	7.0	6-8	2-Phase	2-Phase	2-Phase	2-Phase
2-(5,5-dimethyl-1,3-diazacyclopentane-2,4-dion-1-yl)-ethyl ester of isostearic acid [Isostearic Non-Methylolated Ester]	–	7.0	6-7	–	2-Phase	2-Phase	2-Phase
CCCCCCCC/C=C\CCCCCCCC(=O)OCCN1C(=O)NC(=O)C1(C)C [Oleic Non-Methylolated Ester, 2-(5,5-dimethyl-1,3-diazacyclopentane-2,4-dion-1-yl)-ethyl ester of oleic acid]	–	8.5	8-9	–	2-Phase	2-Phase	2-Phase

Source: patent US5100907A, “Hydantoin esters” (Lonza, Inc., priority 1990, dated 1992)
